# Reference: patent publication US11395822B2, “Methods for treating Huntington's disease” (PTC Therapeutics, Inc., priority 2017, dated 2022)
# pIC50: −log10 of the molar value.
# System: Endogenous Huntingtin Protein
# Experiment: Endogenous Huntingtin Protein Assay (ELISA-based MSD electrochemiluminescence)
# Type: cell-based
# Conditions: MSD plates coated with MW1 (expanded polyglutamine) or MAB2166 capture antibody
# Experimental: Compounds of Formula (I) were tested using the Meso Scale Discovery (MSD) Assay provided in International Application No. PCT/US2016/066042, filed on Dec. 11, 2016 and claiming priority to U.S. Provisional Application U.S. 62/265,652 filed on Dec. 10, 2015, and published as International Publication No. WO 2017/100726 on Jun. 15, 2017, the entire contents of which are incorporated herein by reference.
# The Endogenous Huntingtin Protein assay used in Example 1 was developed using the ELISA-based MSD electrochemiluminescence assay platform.
# Endogenous Huntingtin Protein Assay
# Meso Scale Discovery (MSD) 96-well or 384-well plates were coated overnight at 4° C. with MW1 (expanded polyglutamine) or MAB2166 monoclonal antibody (for capture) at a concentration of 1 μg/mL in PBS (30 μL per well). Plates were then washed three times with […] wash buffer (0.05% Tween-20 in PBS) and blocked (100 μL blocking buffer; 5% BSA in PBS) for 4-5 hours at room temperature with rotational shaking and then washed three times with wash buffer.
# Samples (25 μL) were transferred to the antibody-coated MSD plate and incubated overnight at 4° C. After removal of the lysates, the plate was washed three times with wash buffer, and 25 μL of #5656S (Cell signaling; rabbit monoclonal) secondary antibody (diluted to 0.25 μg/mL in 0.05% Tween-20 in blocking buffer) was added to each well and incubated with shaking for 1 Hour at room temperature. Following incubation with the secondary antibody, the wells were rinsed with wash buffer after which 25 μL of goat anti-rabbit SULFO TAG secondary detection antibody (required aspect of the MSD system) (diluted to 0.25 μg/mL in 0.05% Tween-20 in blocking buffer) was added to each well and incubated with shaking for 1 hour at room temperature. After rinsing three times with wash buffer, 150 μL of read buffer T with surfactant (MSD) were added to each empty well, and the plate was imaged on a SI 6000 imager (MSD) according to manufacturers' instructions provided for 96- or 384-well plates.
row,pIC50,SMILES
1,≥ 7.00,"Cc1cn2nc(-c3cc(=O)n4cc(N5CCN[C@H](C)C5)ccc4n3)cc(C)c2n1 [Compound 886, (R)-2-(2,8-dimethylimidazo[1,2-b]pyridazin-6-yl)-7-(3-methylpiperazin-1-yl)-4H-pyrido[1,2-a]pyrimidin-4-one]"
2,6.30 to 7.00,"Cc1cn2nc(-c3cc(=O)n4cc(N5CCNC(C)(C)C5)ccc4n3)cc(C)c2n1 [Compound 899, 2-(2,8-dimethylimidazo[1,2-b]pyridazin-6-yl)-7-(3,3-dimethylpiperazin-1-yl)-4H-pyrido[1,2-a]pyrimidin-4-one]"
3,5.52 to 6.00,"Cc1cn2nc(-c3cc(=O)n4cc(N5CCNC6(CC6)C5)cc(C)c4n3)cc(C)c2n1 [Compound 905, 2-(2,8-dimethylimidazo[1,2-b]pyridazin-6-yl)-9-methyl-7-(4,7-diazaspiro[2.5]octan-7-yl)-4H-pyrido[1,2-a]pyrimidin-4-one]"
